From PubChem BioAssay (NCI) come the findings set out here.

Test systems include NCI-H522 lung; TK-10 renal; K-562 leukemia; HCT-15 colon; SF-539 CNS; SK-OV-3 ovarian; LOX IMVI melanoma; SR leukemia; UO-31 renal; U251 CNS; PC-3 prostate; SF-295 CNS; SF-268 CNS; KM12 colon; T-47D breast; RXF 393 renal; M14 melanoma; SN12C renal; HCT-116 colon; RPMI-8226 leukemia.
Experiment in all cases: NCI anticancer screen, dose series, 48 h

SMILES strings stand for the structures.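 Exposure lasted 48 hours, with cells grown in 96-well plates and compounds tested at five concentrations. TGI is the concentration that stops growth completely.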

As to `Cc1c2c(Cl)c3c(c(Cl)c2c(C)c2c(Cl)c4c(c(Cl)c12)C(c1ccccc1)(c1ccccc1)C4(c1ccccc1)c1ccccc1)C(c1ccccc1)(c1ccccc1)C3(c1ccccc1)c1ccccc1`, the TGI with NCI-H522 lung, with TK-10 renal, with K-562 leukemia, in the experiment on HCT-15 colon, in the experiment with SF-539 CNS and in the experiment on SK-OV-3 ovarian was over 100 µM in each case. Besides, the TGI in the experiment on LOX IMVI melanoma, with SR leukemia, in the experiment with UO-31 renal, with U251 CNS, with PC-3 prostate and with SF-295 CNS was over 100 µM in each case. Also, the TGI with SF-268 CNS, in the experiment with KM12 colon, in the experiment on T-47D breast, in the experiment with RXF 393 renal, with M14 melanoma and in the experiment on SN12C renal was over 100 µM throughout. In addition, the TGI in the experiment on HCT-116 colon was over 100 µM.

For `COc1cc([C@H]2CC(=O)C[C@H](c3cc(OC)c(OC)c(OC)c3)C23C(=O)c2ccccc2C3=O)cc(OC)c1OC`, the TGI is 95.1 µM in the experiment with NCI-H522 lung; over 100 µM in the experiment on RPMI-8226 leukemia; over 100 µM in the experiment with TK-10 renal; over 100 µM in the experiment on K-562 leukemia; over 100 µM in the experiment on HCT-15 colon; over 100 µM in the experiment on SF-539 CNS. The TGI with SK-OV-3 ovarian, in the experiment with SR leukemia, in the experiment with UO-31 renal, in the experiment with U251 CNS, in the experiment with PC-3 prostate and in the experiment on SF-295 CNS was over 100 µM throughout. The TGI in the experiment with SF-268 CNS was over 100 µM; in the experiment on KM12 colon it was over 100 µM; with T-47D breast, over 100 µM; in the experiment with RXF 393 renal it was 88.7 µM; in the experiment with M14 melanoma it was over 100 µM; in the experiment on SN12C renal, over 100 µM. Further, the TGI in the experiment on HCT-116 colon turned out to be 63.7 µM.

For `O=c1n(-c2ccccc2)c(=O)n2n1C1Cc3ccccc3C12` (configuration not stated), the TGI in the experiment on RPMI-8226 leukemia, in the experiment on TK-10 renal, in the experiment on K-562 leukemia, with HCT-15 colon, in the experiment with SF-539 CNS and in the experiment with SK-OV-3 ovarian was over 100 µM each time. Besides, the TGI with LOX IMVI melanoma, with SR leukemia, in the experiment on UO-31 renal, with U251 CNS, with PC-3 prostate and in the experiment on SF-295 CNS was over 100 µM each time. Further, the TGI in the experiment on SF-268 CNS, with KM12 colon, in the experiment on T-47D breast, in the experiment on M14 melanoma, with SN12C renal and in the experiment on HCT-116 colon was over 100 µM throughout.

For `CN1CCCOC(c2ccc([N+](=O)[O-])cc2)O1` (configuration not stated), the TGI in the experiment with NCI-H522 lung, in the experiment with TK-10 renal, in the experiment with K-562 leukemia, with HCT-15 colon, in the experiment with SF-539 CNS and in the experiment on SK-OV-3 ovarian was over 100 µM throughout. Further, the TGI in the experiment on LOX IMVI melanoma, in the experiment on SR leukemia, in the experiment on UO-31 renal, in the experiment on U251 CNS, in the experiment with PC-3 prostate and with SF-295 CNS was over 100 µM each time. The TGI in the experiment on SF-268 CNS, with KM12 colon, in the experiment on T-47D breast, with RXF 393 renal, in the experiment with M14 melanoma and with SN12C renal was over 100 µM each time. Further, the TGI in the experiment with HCT-116 colon is over 100 µM.

For the compound `C/C(=N\NC(=O)c1ccncc1)c1ccccc1F`, the TGI with RPMI-8226 leukemia, in the experiment with TK-10 renal, in the experiment on K-562 leukemia, in the experiment with HCT-15 colon, in the experiment with SF-539 CNS and in the experiment with SK-OV-3 ovarian was over 10 µM each time. Further, the TGI with LOX IMVI melanoma, in the experiment on SR leukemia, in the experiment with UO-31 renal, in the experiment on U251 CNS, in the experiment with PC-3 prostate and with SF-295 CNS was over 10 µM throughout. Moreover, the TGI in the experiment with SF-268 CNS, in the experiment on KM12 colon, in the experiment on T-47D breast, in the experiment on RXF 393 renal, in the experiment on M14 melanoma and with SN12C renal was over 10 µM throughout. The compound also yielded a TGI in the experiment with HCT-116 colon of over 10 µM.

As for `CC(C)(C)OC(=O)N1CCC2(C)CC(=O)CC=C12` (configuration not stated), the TGI with NCI-H522 lung, with TK-10 renal, in the experiment on K-562 leukemia, in the experiment on HCT-15 colon, in the experiment on SF-539 CNS and with SK-OV-3 ovarian was over 100 µM each time. The TGI with LOX IMVI melanoma, in the experiment on SR leukemia, in the experiment with UO-31 renal, with U251 CNS, with PC-3 prostate and in the experiment with SF-295 CNS was over 100 µM in each case. Further, the TGI with SF-268 CNS, in the experiment on KM12 colon, with T-47D breast, with RXF 393 renal, in the experiment with M14 melanoma and in the experiment with SN12C renal was over 100 µM in each case. This compound also showed a TGI in the experiment with HCT-116 colon of over 100 µM.

For the compound `Cc1ccc(C2SC(N)=Nc3c2c(C)nn3C(=O)c2ccccc2O)cc1` (configuration not stated), the TGI in the experiment on RPMI-8226 leukemia, in the experiment on TK-10 renal, in the experiment with K-562 leukemia, with HCT-15 colon, in the experiment on SF-539 CNS and in the experiment with SK-OV-3 ovarian was over 10 µM in each case. For the same compound, the TGI in the experiment on LOX IMVI melanoma, in the experiment on SR leukemia, in the experiment on UO-31 renal, in the experiment with U251 CNS, with PC-3 prostate and in the experiment on SF-268 CNS was over 10 µM throughout. In addition, the TGI with KM12 colon, with T-47D breast, in the experiment with RXF 393 renal, with M14 melanoma, in the experiment on SN12C renal and in the experiment with HCT-116 colon was over 10 µM each time.

Turning to `COc1ccc2c(c1)-c1[nH]c3ccc(OC)cc3c1CC2`, the TGI was 17.6 µM in the experiment on NCI-H522 lung; 48.2 µM with RPMI-8226 leukemia; 31.5 µM in the experiment on TK-10 renal; 39.6 µM in the experiment on K-562 leukemia; 24.8 µM in the experiment on HCT-15 colon; 33.7 µM with SF-539 CNS. In addition, the TGI turned out to be 33.8 µM in the experiment on SK-OV-3 ovarian; 29.8 µM in the experiment on LOX IMVI melanoma; 53.2 µM in the experiment with SR leukemia; 31.4 µM in the experiment with UO-31 renal; 39.2 µM with U251 CNS; 24.1 µM with PC-3 prostate. The TGI in the experiment on SF-295 CNS is 26.3 µM; in the experiment with SF-268 CNS it was 28.1 µM; with KM12 colon it was 19 µM; with T-47D breast, 36.6 µM; with M14 melanoma, 29.5 µM; in the experiment with SN12C renal, 29.3 µM. Further, in the experiment with HCT-116 colon, the TGI is 32.4 µM.

`O=[N+]([O-])c1cc2c(c([N+](=O)[O-])c1)NCc1ccccc1O2`: the TGI with NCI-H522 lung, in the experiment with RPMI-8226 leukemia, in the experiment on TK-10 renal, in the experiment on HCT-15 colon, in the experiment with SF-539 CNS and with LOX IMVI melanoma was over 100 µM throughout. The TGI with SR leukemia, in the experiment with UO-31 renal, in the experiment with U251 CNS, with PC-3 prostate, in the experiment with SF-295 CNS and with SF-268 CNS was over 100 µM throughout. Further, the TGI in the experiment with KM12 colon, in the experiment on T-47D breast, in the experiment with RXF 393 renal, in the experiment with SN12C renal and in the experiment with HCT-116 colon was over 100 µM in each case.

`CC(=O)N1C(NN(C)C)CCN1c1ccccc1` (configuration not stated): the TGI in the experiment on RPMI-8226 leukemia, in the experiment on TK-10 renal, with K-562 leukemia, with HCT-15 colon, in the experiment on SK-OV-3 ovarian and with SR leukemia was over 10 µM in each case. For the same compound, the TGI with PC-3 prostate, with SF-295 CNS, with SF-268 CNS, in the experiment on KM12 colon, in the experiment with T-47D breast and in the experiment with RXF 393 renal was over 10 µM each time. Moreover, the TGI with M14 melanoma and in the experiment with SN12C renal was over 10 µM in each case.

On to `COC(=O)CN1SC2(SC13C(C)(C)C(=O)C3(C)C)C(C)(C)C(=O)C2(C)C`, for which the TGI in the experiment on RPMI-8226 leukemia, in the experiment with TK-10 renal, in the experiment with K-562 leukemia, in the experiment with HCT-15 colon, in the experiment with SF-539 CNS and with SK-OV-3 ovarian was over 100 µM throughout. The TGI with LOX IMVI melanoma, in the experiment on SR leukemia, in the experiment on UO-31 renal, in the experiment with U251 CNS, in the experiment on PC-3 prostate and in the experiment on SF-295 CNS was over 100 µM each time. The TGI in the experiment with SF-268 CNS, with KM12 colon, in the experiment with T-47D breast, with M14 melanoma, with SN12C renal and in the experiment on HCT-116 colon was over 100 µM each time.

`C#C[C@]1(O)CC[C@H]2[C@@H]3CCC4=C/C(=N/NC(=O)c5cccc6cc7ccccc7nc56)CC[C@@H]4[C@H]3CC[C@@]21CC`: the TGI in the experiment on RPMI-8226 leukemia, with K-562 leukemia, in the experiment with HCT-15 colon, in the experiment with SF-539 CNS, in the experiment with SK-OV-3 ovarian and with LOX IMVI melanoma was over 100 µM each time. In addition, the TGI in the experiment with SR leukemia is over 100 µM; with U251 CNS, over 100 µM; in the experiment with PC-3 prostate, over 100 µM; in the experiment on SF-268 CNS, over 100 µM; in the experiment with KM12 colon it was over 100 µM; in the experiment with T-47D breast, 66.2 µM. Moreover, the TGI in the experiment with RXF 393 renal, in the experiment on M14 melanoma, with SN12C renal and in the experiment with HCT-116 colon was over 100 µM in each case.

As to `Cc1ccc(N2CCC3(CC2)OCCO3)cc1`, the TGI in the experiment on NCI-H522 lung, in the experiment with RPMI-8226 leukemia, in the experiment on TK-10 renal, in the experiment with K-562 leukemia, with HCT-15 colon and in the experiment on SF-539 CNS was over 100 µM each time. For the same compound, the TGI in the experiment with SK-OV-3 ovarian, in the experiment on SR leukemia, in the experiment on UO-31 renal, in the experiment with U251 CNS, in the experiment with PC-3 prostate and in the experiment with SF-295 CNS was over 100 µM throughout. For the same compound, the TGI in the experiment on SF-268 CNS, in the experiment with KM12 colon, in the experiment with T-47D breast, in the experiment with RXF 393 renal, in the experiment with M14 melanoma and with SN12C renal was over 100 µM each time. Further, the TGI in the experiment with HCT-116 colon is over 100 µM.

Take `O=C(Nc1ccccc1)n1[nH]c(=O)n(-c2ccccc2)c1=O`: the TGI in the experiment with NCI-H522 lung, in the experiment with RPMI-8226 leukemia, in the experiment on TK-10 renal, in the experiment on K-562 leukemia, with HCT-15 colon and in the experiment with SF-539 CNS was over 100 µM throughout. Besides, the TGI in the experiment on SK-OV-3 ovarian, with LOX IMVI melanoma, in the experiment with SR leukemia, in the experiment with UO-31 renal, in the experiment on U251 CNS and in the experiment with PC-3 prostate was over 100 µM each time. Also, the TGI in the experiment with SF-295 CNS, in the experiment on SF-268 CNS, in the experiment on KM12 colon, with T-47D breast, in the experiment on SN12C renal and in the experiment with HCT-116 colon was over 100 µM in each case.

Turning to `COc1cccc(-c2nc3ccccc3c(=O)[nH]2)c1OC`, the TGI with RPMI-8226 leukemia is 49.4 µM; in the experiment with HCT-15 colon, over 100 µM; in the experiment on SK-OV-3 ovarian it was over 100 µM; with SR leukemia it was over 100 µM; with UO-31 renal, over 100 µM; with U251 CNS it was over 100 µM. Also, the TGI in the experiment on PC-3 prostate, in the experiment on SF-295 CNS, in the experiment with SF-268 CNS, in the experiment with KM12 colon, in the experiment on T-47D breast and in the experiment on RXF 393 renal was over 100 µM each time. In addition, the TGI in the experiment on M14 melanoma, in the experiment with SN12C renal and in the experiment with HCT-116 colon was over 100 µM each time.
